In ChEMBL document CHEMBL1201862, “PubChem BioAssay data set” (2004):
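Tested at 5 concentrations; 48 h exposure; 96-well plates; endpoints linearly interpolated, else capped at highest concentration. The concentration for 50% growth inhibition is given as GI50.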 Activity calls are given as the source filed them. No stated cut-off is given here; in the data, active = GI50 up to about 1.1 µM and inactive = higher.

Key:
Test in all cases: NCI tumour cell line growth inhibition, 48 h
786-0 = system: 786-0
A549 = system: A549
ACHN = system: ACHN
BT-549 = system: BT-549
CAKI-1 = system: CAKI-1
CCRF-CEM = system: CCRF-CEM
DU-145 = system: DU-145
EKVX = system: EKVX
HCC 2998 = system: HCC 2998
HCT-116 = system: HCT-116
HCT-15 = system: HCT-15
HL-60 = system: HL-60
HOP-62 = system: HOP-62
HT-29 = system: HT-29
Hs-578T = system: Hs-578T
IGROV-1 = system: IGROV-1
K562 = system: K562
KM12 = system: KM12
LOX IMVI = system: LOX IMVI
M14 = system: M14
MCF7 = system: MCF7
MDA-MB-231 = system: MDA-MB-231
MDA-N = system: MDA-N
MOLT-4 = system: MOLT-4
Malme-3M = system: Malme-3M
NCI-H226 = system: NCI-H226
NCI-H23 = system: NCI-H23
NCI-H460 = system: NCI-H460
NCI-H522 = system: NCI-H522
NCI/ADR-RES = system: NCI/ADR-RES
OVCAR-4 = system: OVCAR-4
OVCAR-5 = system: OVCAR-5
OVCAR-8 = system: OVCAR-8
PC-3 = system: PC-3
RPMI-8226 = system: RPMI-8226
SF-268 = system: SF-268
SF-295 = system: SF-295
SF-539 = system: SF-539
SK-MEL-28 = system: SK-MEL-28
SK-MEL-2 = system: SK-MEL-2
SK-MEL-5 = system: SK-MEL-5
SK-OV-3 = system: SK-OV-3
SN12C = system: SN12C
SNB-19 = system: SNB-19
SNB-75 = system: SNB-75
SR = system: SR
SW-620 = system: SW-620
T47D = system: T47D
TK-10 = system: TK-10
U-251 = system: U-251
UACC-257 = system: UACC-257
UACC-62 = system: UACC-62
UO-31 = system: UO-31
A498 = system: A498
COLO 205 = system: COLO 205
HOP-92 = system: HOP-92
MDA-MB-435 = system: MDA-MB-435
OVCAR-3 = system: OVCAR-3
RXF 393 = system: RXF 393

For `CCCCCCC1CC(=O)C1(Cl)Cl` (stereo unspecified), the GI50 (786-0) was 15 µM (inactive), the GI50 (A549) was > 100 µM (inactive) and the GI50 (ACHN) was 18.3 µM (inactive). The GI50 (BT-549) was 21.4 µM (inactive), the GI50 (CAKI-1) was 18.9 µM (inactive) and the GI50 (CCRF-CEM) was 2.4 µM (inactive). For the same compound, the GI50 (DU-145) was 26.9 µM (inactive), the GI50 (EKVX) was 59.2 µM (inactive) and the GI50 (HCC 2998) was 26.3 µM (inactive). For the same compound, the GI50 (HCT-116) was 16.7 µM (inactive), the GI50 (HCT-15) was 31 µM and the GI50 (HL-60) was 2.96 µM (inactive). The GI50 (HOP-62) was 44.7 µM (inactive), the GI50 (HT-29) was 26.7 µM (inactive) and the GI50 (Hs-578T) was 20 µM (inactive). For the same compound, the GI50 (IGROV-1) was 25.1 µM (inactive), the GI50 (K562) was 14.7 µM (inactive) and the GI50 (KM12) was 22.4 µM (inactive). The GI50 (LOX IMVI) was 14.8 µM (inactive), the GI50 (M14) was 26.7 µM (inactive) and the GI50 (MCF7) was 26.4 µM (inactive). For the same compound, the GI50 (MDA-MB-231) was 30.7 µM (inactive), the GI50 (MDA-N) was 25.9 µM (inactive) and the GI50 (MOLT-4) was 13.5 µM (inactive). For the same compound, the GI50 (Malme-3M) was 16.1 µM (inactive), the GI50 (NCI-H226) was 43.9 µM (inactive) and the GI50 (NCI-H23) was 25.2 µM (inactive). For the same compound, the GI50 (NCI-H460) was > 10 µM (inactive), the GI50 (NCI-H522) was 17.3 µM (inactive) and the GI50 (NCI/ADR-RES) was 32.2 µM (inactive). For the same compound, the GI50 (OVCAR-4) was 29.1 µM (inactive), the GI50 (OVCAR-5) was > 100 µM (inactive) and the GI50 (OVCAR-8) was 23.2 µM (inactive). For the same compound, the GI50 (PC-3) was 25.1 µM (inactive), the GI50 (RPMI-8226) was 0.377 µM (active) and the GI50 (SF-268) was 20.7 µM (inactive). The GI50 (SF-295) was 33.9 µM (inactive), the GI50 (SF-539) was 31.3 µM (inactive) and the GI50 (SK-MEL-28) was > 10 µM (inactive). For the same compound, the GI50 (SK-MEL-2) was 30.9 µM (inactive), the GI50 (SK-MEL-5) was 17 µM (inactive) and the GI50 (SK-OV-3) was > 100 µM (inactive). The GI50 (SN12C) was 29.2 µM (inactive), the GI50 (SNB-19) was 63.7 µM (inactive) and the GI50 (SNB-75) was 16.6 µM (inactive). The GI50 (SR) was > 10 µM (inactive), the GI50 (SW-620) was 19.6 µM (inactive) and the GI50 (T47D) was 27.5 µM (inactive). The GI50 (TK-10) was > 100 µM (inactive), the GI50 (U-251) was 38.3 µM (inactive) and the GI50 (UACC-257) was 18.7 µM (inactive). The GI50 (UACC-62) was 20.3 µM (inactive) and the GI50 (UO-31) was 19.4 µM (inactive).
In the case of `CC1(C)C[C@H]2C=C(C=O)[C@]34C[C@]3(C(=O)OC4O)[C@H]2C1` (stereo partly specified), the GI50 (A498) is reported as 3.06 µM (inactive), the GI50 (A549) is reported as 2.83 µM (inactive) and the GI50 (ACHN) is reported as 1.53 µM (inactive). The GI50 (BT-549) was 1.97 µM (inactive), the GI50 (CAKI-1) was 1.59 µM (inactive) and the GI50 (CCRF-CEM) was 0.813 µM (active). The GI50 (COLO 205) was 0.374 µM (active), the GI50 (DU-145) was 2.22 µM (inactive) and the GI50 (EKVX) was 1.61 µM (inactive). For the same compound, the GI50 (HCC 2998) was 2.95 µM (inactive), the GI50 (HCT-116) was 1.14 µM (inactive) and the GI50 (HCT-15) was 1.43 µM. For the same compound, the GI50 (HL-60) was 1.92 µM (inactive), the GI50 (HOP-62) was 14.2 µM (inactive) and the GI50 (HOP-92) was 2.17 µM (inactive). The GI50 (HT-29) was 1.87 µM (inactive), the GI50 (Hs-578T) was 3.21 µM (inactive) and the GI50 (IGROV-1) was 3.05 µM (inactive). For the same compound, the GI50 (K562) was 4.58 µM (inactive), the GI50 (KM12) was 1.94 µM (inactive) and the GI50 (LOX IMVI) was 1.24 µM (inactive). For the same compound, the GI50 (M14) was 1.44 µM (inactive), the GI50 (MCF7) was 1.38 µM (inactive) and the GI50 (MDA-MB-231) was 1.48 µM (inactive). The GI50 (MDA-MB-435) was 2.35 µM (inactive), the GI50 (MDA-N) was 1.37 µM (inactive) and the GI50 (MOLT-4) was 1.53 µM (inactive). For the same compound, the GI50 (Malme-3M) was 1.73 µM (inactive), the GI50 (NCI-H226) was 6.61 µM (inactive) and the GI50 (NCI-H23) was 1.66 µM (inactive). The GI50 (NCI-H460) was 18.1 µM (inactive), the GI50 (NCI-H522) was 0.443 µM (active) and the GI50 (OVCAR-3) was 2.84 µM (inactive). The GI50 (OVCAR-4) was 2.55 µM (inactive), the GI50 (OVCAR-5) was 2.37 µM (inactive) and the GI50 (OVCAR-8) was 1.1 µM (active). The GI50 (PC-3) was 2.84 µM (inactive), the GI50 (RPMI-8226) was 4.54 µM (inactive) and the GI50 (SF-268) was 1.61 µM (inactive). The GI50 (SF-295) was 1.55 µM (inactive), the GI50 (SF-539) was 1.68 µM (inactive) and the GI50 (SK-MEL-28) was 2.92 µM (inactive). The GI50 (SK-MEL-2) was 1.72 µM (inactive), the GI50 (SK-MEL-5) was 1.63 µM (inactive) and the GI50 (SK-OV-3) was 16 µM (inactive). The GI50 (SN12C) was 3.86 µM (inactive), the GI50 (SNB-19) was 11.4 µM (inactive) and the GI50 (SNB-75) was 1.91 µM (inactive). The GI50 (SR) was 2.56 µM (inactive), the GI50 (SW-620) was 3.92 µM (inactive) and the GI50 (T47D) was 0.459 µM (active). The GI50 (TK-10) was 1.77 µM (inactive), the GI50 (U-251) was 8.77 µM (inactive) and the GI50 (UACC-257) was 2.11 µM (inactive). The GI50 (UACC-62) was 1.97 µM (inactive) and the GI50 (UO-31) was 1.83 µM (inactive).
For `CCN(CC)c1ccc2cc(C(N)=O)/c(=N/c3ccc(F)cc3)oc2c1`, the GI50 (786-0) was 14.8 µM (inactive), the GI50 (A498) was 39.4 µM (inactive) and the GI50 (A549) was 91 µM (inactive). The GI50 (ACHN) was 40.8 µM (inactive), the GI50 (BT-549) was > 100 µM (inactive) and the GI50 (CAKI-1) was 45.9 µM (inactive). The GI50 (CCRF-CEM) was > 100 µM (inactive), the GI50 (COLO 205) was > 100 µM (inactive) and the GI50 (EKVX) was 81.5 µM (inactive). For the same compound, the GI50 (HCC 2998) was 59.2 µM (inactive), the GI50 (HCT-116) was 5.07 µM (inactive) and the GI50 (HCT-15) was 59.8 µM. For the same compound, the GI50 (HL-60) was > 100 µM (inactive), the GI50 (HOP-62) was 28 µM (inactive) and the GI50 (HOP-92) was 18.7 µM (inactive). For the same compound, the GI50 (HT-29) was 6.95 µM (inactive), the GI50 (Hs-578T) was 47.9 µM (inactive) and the GI50 (IGROV-1) was 26.7 µM (inactive). The GI50 (K562) was > 100 µM (inactive), the GI50 (KM12) was 17.6 µM (inactive) and the GI50 (LOX IMVI) was 46.1 µM (inactive). For the same compound, the GI50 (M14) was > 100 µM (inactive), the GI50 (MCF7) was 51.4 µM (inactive) and the GI50 (MDA-MB-231) was 14.5 µM (inactive). The GI50 (MDA-MB-435) was > 100 µM (inactive), the GI50 (MDA-N) was > 100 µM (inactive) and the GI50 (MOLT-4) was > 100 µM (inactive). For the same compound, the GI50 (Malme-3M) was 98.2 µM (inactive), the GI50 (NCI-H226) was 36.4 µM (inactive) and the GI50 (NCI-H23) was 13.4 µM (inactive). For the same compound, the GI50 (NCI-H460) was 6.76 µM (inactive), the GI50 (NCI-H522) was 11.6 µM (inactive) and the GI50 (NCI/ADR-RES) was 35.6 µM (inactive). The GI50 (OVCAR-3) was > 100 µM (inactive), the GI50 (OVCAR-4) was 41.3 µM (inactive) and the GI50 (OVCAR-5) was > 100 µM (inactive). The GI50 (OVCAR-8) was 22.8 µM (inactive), the GI50 (PC-3) was 77.1 µM (inactive) and the GI50 (RPMI-8226) was > 100 µM (inactive). The GI50 (RXF 393) was 22.8 µM (inactive), the GI50 (SF-268) was 39.5 µM (inactive) and the GI50 (SF-295) was 10.3 µM (inactive). For the same compound, the GI50 (SK-MEL-28) was > 100 µM (inactive), the GI50 (SK-MEL-2) was 35.7 µM (inactive) and the GI50 (SK-MEL-5) was > 100 µM (inactive). The GI50 (SK-OV-3) was 58.6 µM (inactive), the GI50 (SN12C) was 45.4 µM (inactive) and the GI50 (SNB-19) was 25.5 µM (inactive). The GI50 (SNB-75) was 20.4 µM (inactive), the GI50 (SR) was 4.65 µM (inactive) and the GI50 (SW-620) was > 100 µM (inactive). For the same compound, the GI50 (T47D) was 14.2 µM (inactive), the GI50 (TK-10) was 10.3 µM (inactive) and the GI50 (U-251) was 38.5 µM (inactive). The GI50 (UACC-257) was > 100 µM (inactive), the GI50 (UACC-62) was 26.4 µM (inactive) and the GI50 (UO-31) was 26.9 µM (inactive).
